This note sets out measurements from patent publication US7998940B2, “Aptamers to von Willebrand factor and their use as thrombotic disease therapeutics” (Archemix Corp., priority 2004, dated 2011).

This series concerns full length human vWF (SEQ ID NO 7). Put plainly: dot blot KD determination and extent of binding, full length human vWF.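 As to all read-outs here: dot blot binding of aptamers to full length human vWF across a protein titration, incubated 30 minutes at room temperature in 1x DPBS with BSA.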 The settings on record: for % binding @ 100 nM vWF: extent of aptamer binding at 100 nM full length human vWF; for Kd: full length human vWF, dot blot, 8 point protein titration, read-out: KD.

Where two headings read alike, the source gives them in different places. Oligonucleotides are written 5' to 3', each unit as a sugar letter and its base; * is a phosphorothioate linkage, no mark a phosphodiester; rarer units and linkages stand in square brackets, end groups in braces. Plain capitals give the bases only. [invdT] = inverted (3'-3') thymidine; d = 2'-deoxy (DNA); m = 2'-O-methyl

One may read the Kd as the equilibrium constant for the complex coming apart.

For the substance “ARC1222: ARC1172 with one residue replaced by 2'-O methyl residue (dGdGdCdGdTdGdCdAdGdTdGdCdCdTdTdCdGdGdCdCdGdTdGdCdGdGdTdGmCdCdTdCdCdGdTdCdAdCdGdCdC[invdT]; aptamer)”, where the note is “Phase 1 modification”, the “% binding @ 100 nM vWF” value is 40% and the Kd was 0.9 nM.

For the substance “ARC1223: ARC1172 with one residue replaced by 2'-O methyl residue (dGdGdCdGdTdGdCdAdGdTdGdCdCdTdTdCdGdGdCdCdGdTdGdCdGdGdTdGdCmCdTdCdCdGdTdCdAdCdGdCdC[invdT]; aptamer)”, where the note is “Phase 1 modification”, the “% binding @ 100 nM vWF” value was found to be 26% and the equilibrium dissociation constant (Kd) stood at 36 nM.

With “ARC1224: ARC1172 with one residue replaced by 2'-O methyl residue (dGdGdCdGdTdGdCdAdGdTdGdCdCdTdTdCdGdGdCdCdGdTdGdCdGdGdTdGdCdCmUdCdCdGdTdCdAdCdGdCdC[invdT]; aptamer)”, where the note is “Phase 1 modification”, the “% binding @ 100 nM vWF” value was 47% and the Kd is 0.5 nM.

Turning to “ARC1225: ARC1172 with one residue replaced by 2'-O methyl residue (dGdGdCdGdTdGdCdAdGdTdGdCdCdTdTdCdGdGdCdCdGdTdGdCdGdGdTdGdCdCdTmCdCdGdTdCdAdCdGdCdC[invdT]; aptamer)”, where the note is “Phase 1 modification”, the “% binding @ 100 nM vWF” value is reported as 16% and the equilibrium dissociation constant (Kd) came to 11 nM.

In the case of “ARC1226: ARC1172 with one residue replaced by 2'-O methyl residue (dGdGdCdGdTdGdCdAdGdTdGdCdCdTdTdCdGdGdCdCdGdTdGdCdGdGdTdGdCdCdTdCmCdGdTdCdAdCdGdCdC[invdT]; aptamer)”, for the setting “Phase 1 modification”, the “% binding @ 100 nM vWF” value is reported as 25% and the equilibrium dissociation constant (Kd) turned out to be 12 nM.

For the substance “ARC1227: ARC1172 with one residue replaced by 2'-O methyl residue (dGdGdCdGdTdGdCdAdGdTdGdCdCdTdTdCdGdGdCdCdGdTdGdCdGdGdTdGdCdCdTdCdCmGdTdCdAdCdGdCdC[invdT]; aptamer)”, for the setting “Phase 1 modification”, the “% binding @ 100 nM vWF” value was found to be 40% and the dissociation constant (Kd) worked out at 3 nM.

On to “ARC1228: ARC1172 with one residue replaced by 2'-O methyl residue (dGdGdCdGdTdGdCdAdGdTdGdCdCdTdTdCdGdGdCdCdGdTdGdCdGdGdTdGdCdCdTdCdCdGmUdCdAdCdGdCdC[invdT]; aptamer)”, for which, under “Phase 1 modification”, the “% binding @ 100 nM vWF” value is reported as 43% and the Kd came to 2 nM.

Turning to “ARC1229: ARC1172 with one residue replaced by 2'-O methyl residue (dGdGdCdGdTdGdCdAdGdTdGdCdCdTdTdCdGdGdCdCdGdTdGdCdGdGdTdGdCdCdTdCdCdGdTmCdAdCdGdCdC[invdT]; aptamer)”, for the setting “Phase 1 modification”, the “% binding @ 100 nM vWF” value is recorded as 37% and the Kd is 5 nM.

For the substance “ARC1230: ARC1172 with one residue replaced by 2'-O methyl residue (dGdGdCdGdTdGdCdAdGdTdGdCdCdTdTdCdGdGdCdCdGdTdGdCdGdGdTdGdCdCdTdCdCdGdTdCmAdCdGdCdC[invdT]; aptamer)”, for the setting “Phase 1 modification”, the “% binding @ 100 nM vWF” value was 46% and the Kd was determined as 3 nM.

“ARC1231: ARC1172 with one residue replaced by 2'-O methyl residue (dGdGdCdGdTdGdCdAdGdTdGdCdCdTdTdCdGdGdCdCdGdTdGdCdGdGdTdGdCdCdTdCdCdGdTdCdAmCdGdCdC[invdT]; aptamer)”: under “Phase 1 modification”, the “% binding @ 100 nM vWF” value came out at 50% and the Kd was 1 nM.

On to “ARC1232: ARC1172 with one residue replaced by 2'-O methyl residue (dGdGdCdGdTdGdCdAdGdTdGdCdCdTdTdCdGdGdCdCdGdTdGdCdGdGdTdGdCdCdTdCdCdGdTdCdAdCmGdCdC[invdT]; aptamer)”, for which, under “Phase 1 modification”, the “% binding @ 100 nM vWF” value is recorded as 51% and the Kd came to 1 nM.

For “ARC1233: ARC1172 with one residue replaced by 2'-O methyl residue (dGdGdCdGdTdGdCdAdGdTdGdCdCdTdTdCdGdGdCdCdGdTdGdCdGdGdTdGdCdCdTdCdCdGdTdCdAdCdGmCdC[invdT]; aptamer)”, for the setting “Phase 1 modification”, the “% binding @ 100 nM vWF” value is recorded as 39% and the Kd came to 2 nM.

As to “ARC1234: ARC1172 with one residue replaced by 2'-O methyl residue (dGdGdCdGdTdGdCdAdGdTdGdCdCdTdTdCdGdGdCdCdGdTdGdCdGdGdTdGdCdCdTdCdCdGdTdCdAdCdGdCmC[invdT]; aptamer)”, under “Phase 1 modification”, the “% binding @ 100 nM vWF” value is on record as 42% and the Kd was 2 nM.

Regarding “ARC1235: ARC1172 with composite 2'-O methyl replacements in the stem regions (mGmGdCmGdTmGdCdAdGdTdGdCdCdTdTdCdGdGdCdCdGdTdGdCdGdGdTdGdCdCdTdCdCdGdTdCmAdCmGdCdC[invdT]; aptamer)”, where the note is “Phase 1 modification”, the “% binding @ 100 nM vWF” value came to 23% and the Kd came out at 13 nM.

“ARC1236: ARC1172 with composite 2'-O methyl replacements in the stem regions (dGdGmCdGmUdGdCdAdGdTdGdCdCdTdTdCdGdGdCdCdGdTdGdCdGdGdTdGdCdCdTdCdCdGdTmCdAmCdGmCmC[invdT]; aptamer)”: under “Phase 1 modification”, the “% binding @ 100 nM vWF” value came out at 32% and the Kd is 3 nM.

Take “ARC1237: ARC1172 with composite 2'-O methyl replacements in the stem regions (mGmGmCmGmUmGdCdAdGdTdGdCdCdTdTdCdGdGdCdCdGdTdGdCdGdGdTdGdCdCdTdCdCdGdTmCmAmCmGmCmC[invdT]; aptamer)”: where the note is “Phase 1 modification”, the “% binding @ 100 nM vWF” value was found to be 9% and the Kd was found to be 41 nM.

Take “ARC1238: ARC1172 with composite 2'-O methyl replacements in the stem regions (dGdGdCdGdTdGdCdAdGdTmGdCdCdTdTdCmGmGdCdCdGdTdGdCdGdGdTdGdCdCdTdCdCdGdTdCdAdCdGdCdC[invdT]; aptamer)”: for the setting “Phase 1 modification”, the “% binding @ 100 nM vWF” value came out at 43% and the Kd is 2 nM.

With “ARC1239: ARC1172 with composite 2'-O methyl replacements in the stem regions (dGdGdCdGdTdGdCdAdGdTdGmCmCdTdTdCdGdGmCdCdGdTdGdCdGdGdTdGdCdCdTdCdCdGdTdCdAdCdGdCdC[invdT]; aptamer)”, under “Phase 1 modification”, the “% binding @ 100 nM vWF” value was 37% and the Kd stood at 5 nM.

Take “ARC1240: ARC1172 with composite 2'-O methyl replacements in the stem regions (dGdGdCdGdTdGdCdAdGdTmGmCmCdTdTdCmGmGmCdCdGdTdGdCdGdGdTdGdCdCdTdCdCdGdTdCdAdCdGdCdC[invdT]; aptamer)”: for the setting “Phase 1 modification”, the “% binding @ 100 nM vWF” value turned out to be 40% and the Kd came out at 4 nM.

Consider “ARC1361: ARC1346 with a mC to dC modification at position 36 (mGmCmGmUdGdCdAmGmUmGmCmCmUmUmCmGmGmCdCmGdTmGdCdGdGdTmGmCdCmUdCdCmGmUdCmAmCmGmC[invdT])”, for which, for the setting “Phase 3 modification”, the “% binding @ 100 nM vWF” value is listed as 38.5% and the Kd is 7.9 nM.

For “ARC1362: ARC1361 with single phosphorothioate phosphate backbone modification (mGmCmGmU*dGdCdAmGmUmGmCmCmUmUmCmGmGmCdCmGdTmGdCdGdGdTmGmCdCmUdCdCmGmUdCmAmCmGmC[invdT])”, for the setting “Phase 3 modification”, the “% binding @ 100 nM vWF” value was determined as 34.3% and the dissociation constant (Kd) turned out to be 9.9 nM.
